According to patent publication US20230346670A1, “Prebiotic Oral Care Compositions and Methods” (Colgate-Palmolive Company, priority 2020, published 2023):
Where “and” joins values, the source holds several entries; their conditions need not be identical. Identical values can stand only once. Marks after values point to notes of the source that are not given here.

Experiments:
Assay type in all cases: cell-based
[1] = tested on: multi-species biofilms; test: Organic acid levels in supernatant of multi-species biofilms (ion chromatography); settings: >0 production, <0 consumption, n = 3
Summary of the method: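 Biofilms grown 24 h on calcium-deficient hydroxyapatite disks (Amsterdam Active Adhesion model, 37° C., microaerophilic), then rinsed in substrate solution 3 min, three times daily for 3 days; PBS pH 5.7 without substrate as negative control. Organic acids in filter-sterilized supernatant quantified by ion chromatography.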

[2] = tested on: A. naeslundii; test: Multi-species biofilm composition, absolute abundance (Geq/mL); settings: repeated rinsing
Summary of the method: (§1)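 Biofilms grown vertically on CAD-HA disks in the Amsterdam Active Adhesion model, 24 h at 37° C., 170 rpm, microaerophilic (6% O2, 7% CO2, 7% H2, 80% N2). Then rinsed 3 times a day for 3 minutes at 1 M substrate for 3 days; PBS (pH 5.7) control. Values are log(Geq/mL), mean ± SD, n = 3.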

[3] = tested on: S. oralis; test: as above; settings: repeated rinsing
Summary of the method: as §1

[4] = tested on: P. gingivalis; test: as above; settings: repeated rinsing
Summary of the method: as §1

[5] = tested on: S. gordonii; test: as above; settings: repeated rinsing
Summary of the method: as §1

[6] = tested on: P. intermedia; test: as above; settings: repeated rinsing
Summary of the method: as §1

[7] = tested on: A. actinomycetemcomitans; test: as above; settings: repeated rinsing
[8] = tested on: S. sobrinus; test: as above; settings: repeated rinsing
Summary of the method: as §1

[9] = tested on: S. mitis; test: as above; settings: repeated rinsing
[10] = tested on: P. intermedia virulence genes; test: Virulence gene expression in multi-species biofilm (SYBR RT-qPCR); settings: relative to control = 1
Summary of the method: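 Multi-species biofilms grown 24 h on CAD-HA disks (37° C., microaerophilic), then rinsed 3×/day for 3 min over 3 days with substrate at 1 M or 1% (w/v) in PBS; PBS pH 5.7 as control. Expression of 33 genes by SYBR RT-qPCR, normalized to housekeeping genes; fold change by 2^-ΔΔCt, geometric mean (95% C.I.), n = 3.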

[11] = tested on: A. viscosus; test: Multi-species biofilm composition, absolute abundance (Geq/mL); settings: repeated rinsing
[12] = tested on: S. mutans; test: as above; settings: repeated rinsing
[13] = tested on: V. parvula; test: as above; settings: repeated rinsing
[14] = tested on: F. nucleatum; test: as above; settings: repeated rinsing
Summary of the method: as §1

[15] = tested on: S. sanguinis; test: as above; settings: repeated rinsing
Summary of the method: as §1

[16] = tested on: S. salivarius; test: as above; settings: repeated rinsing
[17] = lower part of Table 6d, head prints 1 M (lower part 1%(w/v))
[18] = upper part of Table 6d, substrate 1 M, n = 3

CC(=O)N[C@H]1C(O)O[C@H](CO)[C@@H](O)[C@@H]1O (stereo partly drawn) [NADG, N-acetyl-D-glucosamine]
acetate level in biofilm supernatant, mean ± SD ([1]; substrate 1% (w/v)): 379 ± 10 mg/L | butyrate level in biofilm supernatant, mean ± SD ([1]; substrate 1% (w/v)): 2238 ± 59 mg/L | formate level in biofilm supernatant, mean ± SD ([1]; substrate 1% (w/v)): 4315 ± 198 mg/L | lactate level in biofilm supernatant, mean ± SD ([1]; substrate 1% (w/v)): -125 ± 0 mg/L | propionate level in biofilm supernatant, mean ± SD ([1]; substrate 1% (w/v)): 2205 ± 89 mg/L | acetate level in biofilm supernatant, mean ± SD ([1]; substrate 1 M): 3815 ± 77 mg/L | butyrate level in biofilm supernatant, mean ± SD ([1]; substrate 1 M): 1255±51 mg/L and 1255 ± 51^∗ mg/L | formate level in biofilm supernatant, mean ± SD ([1]; substrate 1 M): 352 ± 18 mg/L | lactate level in biofilm supernatant, mean ± SD ([1]; substrate 1 M): -125 ± 0 mg/L | propionate level in biofilm supernatant, mean ± SD ([1]; substrate 1 M): 2750±40 mg/L and 2750 ± 40^∗ mg/L | absolute abundance of A. naeslundii (An), mean ± SD log (Geq/mL) ([2]; substrate 1% (w/v)): 7.71 ± 0.12 log (Geq/mL) | absolute abundance of A. naeslundii (An), mean ± SD log (Geq/mL) ([2]; substrate 1 M in PBS, n = 3): 5.41 ± 0.31^∗ log (Geq/mL) | absolute abundance of S. oralis, mean ± SD log (Geq/mL) ([3]; substrate 1% (w/v)): 7.11 ± 0.14 log (Geq/mL) | absolute abundance of S. oralis, mean ± SD log (Geq/mL) ([3]; substrate 1 M in PBS, n = 3): 7.96 ± 0.59 log (Geq/mL) | absolute abundance of P. gingivalis (Pg), mean ± SD log (Geq/mL) ([4]; substrate 1% (w/v)): 7.14 ± 0.28 log (Geq/mL) | absolute abundance of P. gingivalis (Pg), mean ± SD log (Geq/mL) ([4]; substrate 1 M in PBS, n = 3): 4.43 ± 0.14^∗ log (Geq/mL) | absolute abundance of S. gordonii, mean ± SD log (Geq/mL) ([5]; substrate 1% (w/v)): 8.33 ± 0.06 log (Geq/mL) | absolute abundance of S. gordonii, mean ± SD log (Geq/mL) ([5]; substrate 1 M in PBS, n = 3): 9.80 ± 0.22^∗ log (Geq/mL) | absolute abundance of P. intermedia (Pi), mean ± SD log (Geq/mL) ([6]; substrate 1% (w/v)): 8.17 ± 0.22 log (Geq/mL) | absolute abundance of P. intermedia (Pi), mean ± SD log (Geq/mL) ([6]; substrate 1 M in PBS, n = 3): 4.09 ± 0.16^∗ log (Geq/mL) | absolute abundance of A. actinomycetemcomitans (Aa), mean ± SD log (Geq/mL) ([7]; substrate 1% (w/v)): 9.11 ± 0.2 log (Geq/mL) | absolute abundance of A. actinomycetemcomitans (Aa), mean ± SD log (Geq/mL) ([7]; substrate 1 M in PBS, n = 3): 8.15 ± 0.21^∗ log (Geq/mL) | absolute abundance of S. sobrinus, mean ± SD log (Geq/mL) ([8]; substrate 1% (w/v)): 4.87 ± 0.22 log (Geq/mL) | absolute abundance of S. sobrinus, mean ± SD log (Geq/mL) ([8]; substrate 1 M in PBS, n = 3): 3.46 ± 0.19^∗ log (Geq/mL) | absolute abundance of S. mitis, mean ± SD log (Geq/mL) ([9]; substrate 1% (w/v)): 2.65 ± 0.00 log (Geq/mL) | absolute abundance of S. mitis, mean ± SD log (Geq/mL) ([9]; substrate 1 M in PBS, n = 3): 3.38 ± 1.04 log (Geq/mL) | fold change in DnaJ expression, geometric mean (95% C.I.) [10, 17]: 0.70 (0.50-0.99) fold | fold change in DnaK expression, geometric mean (95% C.I.) [10, 17]: 0.77 (0.34-1.77) fold | fold change in ECF expression, geometric mean (95% C.I.) [10, 17]: 0.48 (0.11-2.02) fold | fold change in GroES expression, geometric mean (95% C.I.) [10, 17]: 0.75 (0.49-1.14) fold | fold change in HtpG expression, geometric mean (95% C.I.) [10, 17]: 0.46 (0.22-0.94)* fold | fold change in KpsD expression, geometric mean (95% C.I.) [10, 17]: 0.78 (0.37-1.62) fold | fold change in adpc expression, geometric mean (95% C.I.) [10, 17]: 0.67 (0.64-0.69) fold | fold change in clpB expression, geometric mean (95% C.I.) [10, 17]: 1.06 (0.58-1.96) fold | fold change in inpA expression, geometric mean (95% C.I.) [10, 17]: 0.53 (0.24-1.17)* fold | fold change in phg expression, geometric mean (95% C.I.) [10, 17]: 0.69 (0.47-1.00) fold | fold change in DnaJ expression, geometric mean (95% C.I.) [10, 18]: 0.64 (0.35-1.16) fold | fold change in DnaK expression, geometric mean (95% C.I.) [10, 18]: 2.34 (1.23-4.43)* fold | fold change in ECF expression, geometric mean (95% C.I.) [10, 18]: 20.32 (4.81-85.88)^∗ fold | fold change in GroES expression, geometric mean (95% C.I.) [10, 18]: 1.86 (1.38-2.50) fold | fold change in HtpG expression, geometric mean (95% C.I.) [10, 18]: 3.40 (2.27-5.08)* fold | fold change in KpsD expression, geometric mean (95% C.I.) [10, 18]: 1.72 (0.62-4.72) fold | fold change in adpc expression, geometric mean (95% C.I.) [10, 18]: 2.65 (1.25-5.62)* fold | fold change in clpB expression, geometric mean (95% C.I.) [10, 18]: 2.03 (0.94-4.41) fold | fold change in inpA expression, geometric mean (95% C.I.) [10, 18]: 4.52 (4.14-4.94)^∗ fold | fold change in phg expression, geometric mean (95% C.I.) [10, 18]: 0.57 (0.38-0.85)* fold | absolute abundance of A. viscosus (Av), mean ± SD log (Geq/mL) ([11]; substrate 1% (w/v)): 7.83 ± 0.31 log (Geq/mL) | absolute abundance of A. viscosus (Av), mean ± SD log (Geq/mL) ([11]; substrate 1 M in PBS, n = 3): 6.72 ± 0.22 log (Geq/mL) | absolute abundance of S. mutans, mean ± SD log (Geq/mL) ([12]; substrate 1% (w/v)): 7.83 ± 0.23 log (Geq/mL) | absolute abundance of S. mutans, mean ± SD log (Geq/mL) ([12]; substrate 1 M in PBS, n = 3): 7.96 ± 0.10 log (Geq/mL) | absolute abundance of V. parvula (VP), mean ± SD log (Geq/mL) ([13]; substrate 1% (w/v)): 9.77 ± 0.19 log (Geq/mL) | absolute abundance of V. parvula (VP), mean ± SD log (Geq/mL) ([13]; substrate 1 M in PBS, n = 3): 9.91 ± 0.19 log (Geq/mL) | absolute abundance of F. nucleatum (Fn), mean ± SD log (Geq/mL) ([14]; substrate 1% (w/v)): 9.41 ± 0.19 log (Geq/mL) | absolute abundance of F. nucleatum (Fn), mean ± SD log (Geq/mL) ([14]; substrate 1 M in PBS, n = 3): 7.22 ± 0.28^∗ log (Geq/mL) | absolute abundance of S. sanguinis, mean ± SD log (Geq/mL) ([15]; substrate 1% (w/v)): 8.40 ± 0.11 log (Geq/mL) | absolute abundance of S. sanguinis, mean ± SD log (Geq/mL) ([15]; substrate 1 M in PBS, n = 3): 6.43 ± 0.94 log (Geq/mL) | absolute abundance of S. salivarius, mean ± SD log (Geq/mL) ([16]; substrate 1% (w/v)): 2.65 ± 0.00 log (Geq/mL) | absolute abundance of S. salivarius, mean ± SD log (Geq/mL) ([16]; substrate 1 M in PBS, n = 3): 6.40 ± 0.29^∗ log (Geq/mL)
